Reference: article PMC11403612, “Preparation and Preclinical Characterization of a Simple Ester for Dual Exogenous Supply of Lactate and Beta-hydroxybutyrate” (Journal of Agricultural and Food Chemistry, 2024)

Columns and labels:
[1] = Stability of LaKe upon storage (neat, GC-FID); type: physicochemical; details: ambient temperature
Description: Following preparation, LaKe was analyzed by GC-FID. Subsequently, LaKe was stored neat at either −15, 0, and 20 °C and the samples were reanalyzed after 24 months. Table S1 (Supporting Information) contains the corresponding stability data and the GC-FID conditions applied.

[2] = Microsomal stability of LaKe, rat; type: in vitro ADME, SD Rat
Description: The in vitro stability of LaKe was evaluated following incubation in simulated gastric fluid (SGF), simulated intestinal fluid (SIF), fresh and frozen plasma (rats and humans, respectively), and the presence of hepatocytes (rats and humans) and liver microsomes (rats and humans). At the chosen time points, the mixtures were analyzed by LC-MS/MS to quantify the remaining LaKe and all assays included at least one control compound with known pharmacokinetic properties.
Hepatocyte stability of LaKe
Cells: Rat hepatocytes (BioreclamationIVT, M0005); Human hepatocytes (BioreclamationIVT, X008001) Thawing Medium: Williams’ Medium E containing 5% fetal bovine serum and 30% Percoll solution and other […]
Incubation Medium: Williams’ Medium E (no phenol red) containing 2 mM L-Glutamine and 25 mM HEPES.
Stop Solution: Acetonitrile containing 200 ng/mL tolbutamide and labetalol as internal standards.
Dilution Solution: Ultra-pure water.
Preparation of Quenching Plate: Transfer 125 μL of stop solution (acetonitrile containing 200 ng/mL tolbutamide and 200 ng/mL labetalol as internal standards) in a set of pre-labeled 96-well plates.
Cryopreserved cells were thawed, isolated and suspended in Incubation Medium, then diluted with pre-warmed Incubation Medium to 0.5 × 10^6 cells/mL. 198 μL of pre-warmed cell suspensions were added in 96-well plates. […]

With `CC(O)CCOC(=O)C(C)O` (stereo not drawn) [LaKe, 3-hydroxybutyl 2-hydroxypropanoate] the “stability to storage in the neat state” value [1] was “at least 2 years”, the “turnover in liver microsomes” value ([2]; presence of NADPH) was “underwent turnover” and the LaKe remaining ([2]; rat liver microsomes, absence of NADPH, after 60 min) was 55%.
